Assay [1] deals with patients with Parkinson's syndrome. The experiment in a line: Clinical trial: unified scale for evaluation of Parkinsonism. Format: in vivo, human. The following applies: 3 months of treatment. The method, then: The efficacy of the treatment of Alzheimer-type dementias with marked intellectual-mnestic memory loss with polyprenols of formula (1) and a comparison of the efficacy of Ropren and Gliatilin was studied in patients during a 3-month course of treatment. Treatment efficacy on various functions before and after the treatment was assessed using the international scale MMSE ((evaluation of mental status—Mini-Mental State Examination, MMSE) Folstcin et al, 1975), “list with symptoms” questionnaire, unified scale for evaluation of Parkinsonism, EEG data, and biochemical parameters of the blood.
After treatment with Ropren, the Parkinson's syndrome decreased (on average by 5 points) in almost all patients, i.e., in 23 out of 25 patients or in 92%. This positive effect was found as early as 1 month after commencement of Ropren therapy. In the case of Gliatilin, improvement of Parkinson's syndrome was less pronounced (on average by 3 points) using the Parkinsonism rating scale.

Assay [2] concerns patients with vascular dementia of the Alzheimer's type. Briefly: Clinical trial: electroencephalography (EEG) before and after therapy. In kind it is in vivo, human. The following applies: before vs after treatment (about 3 months), individual patients or group.
Description: MMSE scale (parameter of evaluation of intellectually-mnestic functions of a patient before and after treatment) was used for the evaluation of intellect. […] Electroencephalography (EEG) was performed in 12 patients (48%) before and after the Ropren therapy.

Consider `C[N+](C)(C)CCOP(=O)([O-])OC[C@H](O)CO` [Gliatilin, choline alfoscerate], for which the “average decrease of Parkinson's syndrome on Parkinsonism rating scale” value in assay [1] came to 3 points. Besides, the “Changes in EEG” value in assay [2] is listed as “No changes”.

The values above are taken from US8987338B2, “Active ingredient of a medicinal agent, a medicinal agent, a pharmaceutical composition and method for treating dementia syndrome patients” (priority 2007, dated 2015).
